For assay [1], the target named is T1, LTB4 receptor (Homo sapiens, UniProt Q15722).
T1 construct: neutrophils were purified from venous blood of normal human donors; endogenous in cells; host or cells: neutrophils purified from venous blood of normal human donors (purity at least 95%)
The assay can be described thus: LTB4 Receptor Binding Assay (inhibition of specific binding of (3H) LTB4 to human neutrophils). Particulars: 0.6 nM (3H) LTB4, 0° C., 45 minutes; for pIC50: pH 7.4. From the text:
(§1) For use in both the "LTB4 receptor Binding Assay" and the "human Neutrophil Degranulation Assay", neutrophils were purified from venous blood of normal human donors using standard techniques of dextran sedimentation, centrifugation on Histopaque® (density solution) and hypotonic lysis of erythrocytes (Boyum, A., Isolation of Leukocytes From Human Blood: Further Observations. Scand. J. Lab. Clin. Inves. 21 (Suppl. 97): 31, 1968). The purity of isolated neutrophils was ≥95%.
Neutrophils (4-6×10^6) in 1 ml of Hanks balanced salt solution containing 10 mM Hepes Buffer (HBSS), pH 7.4 and 30 μM nordihydroguaiaretic acid were incubated with 0.6 nM (^3 H) LTB4 in the presence or absence of test compounds. The incubation was carried out at 0° C. for 45 minutes and terminated by adding 5 ml of ice cold HBSS followed by rapid filtration of incubation mixture under vacuum through GF/C glass fiber filters. The filters were further washed with 10 ml HBSS and their radioactivity was determined. Specific binding was defined as the difference between total binding and nonspecific binding which was not displaced by 10-^7 M unlabeled LTB4.
The inhibition of specific binding was determined for representatives compounds of this invention, and the corresponding IC50 values calculated (Table 1). An IC50 is the concentration of the compound of interest which will inhibit the binding of LTB4 by 50% of the LTB4 receptors. For example, for the compound of Example 7, the IC50 was determined to be approximately

The subject of assay [2] is LTB4 induced degranulation of human neutrophils. The assay can be described thus: Human Neutrophil Degranulation Assay (LTB4 induced myeloperoxidase release). Conditions: cytochalasin B, LTB4 5×10^-8 M, read-out: Inhibition of LTB4 Induced Neutrophil Degranulation IC50. In kind it is cell-based.
Text: as §1
LTB4 induced neutrophil degranulation was determined by measuring the release of myeloperoxidase activity into the incubation medium. Neutrophils (3×10^6) in 1 ml HBSS solution were preincubated with cytochalasin B(5 μg) at 37° C. for 5 minutes, followed by preincubation with test compounds for 7 minutes. Neutrophilsere then incubated for 2 to 20 minutes with either LTB4 (5 ×10^-8 M) or the chemotactic peptide f-met-leu-phe (5×10^-6 M) to induce degranulation. Following incubation, samples were centrifuged and myleoperoxidase was extracted from the cell pellets by sonication in phosphate buffer containing 0.4% Triton X-100. Triton X-100 was also added to the supernatents to a concentration of 0.4%. The supernatants and the pellet extracts were then assayed spectrophotometrically for myeloperoxide activity by determining the rate of decomposition of H2 O2 with o-dianisidine as hydrogen donor as described by Renlund D. G., MacFarlane J. L., Christensen, R. D., Lynch R. E., and Rothstein, G., A Quantitative And Sensitive Method For Measurement Of Mveloperoxidase, Clinical Research 28:75A, 1980). Myeloperoxidase activity released into the supernatant was expressed as the percent of the average total activity (pellet plus supernatant).
The inhibition of LTB4 induced neutrophil degranulation was determined for representative compounds of this invention and their corresponding IC50 values were calculated (Table 1). The concentration of a compound which inhibited LTB4 induced neutrophil degranulation by 50% was determined to be its IC50 value.

pIC50: −log10 of the molar value.

The pIC50 is the negative decadic logarithm of the IC50, by convention in mol/L.

T1 sequence (Q15722 whole entry): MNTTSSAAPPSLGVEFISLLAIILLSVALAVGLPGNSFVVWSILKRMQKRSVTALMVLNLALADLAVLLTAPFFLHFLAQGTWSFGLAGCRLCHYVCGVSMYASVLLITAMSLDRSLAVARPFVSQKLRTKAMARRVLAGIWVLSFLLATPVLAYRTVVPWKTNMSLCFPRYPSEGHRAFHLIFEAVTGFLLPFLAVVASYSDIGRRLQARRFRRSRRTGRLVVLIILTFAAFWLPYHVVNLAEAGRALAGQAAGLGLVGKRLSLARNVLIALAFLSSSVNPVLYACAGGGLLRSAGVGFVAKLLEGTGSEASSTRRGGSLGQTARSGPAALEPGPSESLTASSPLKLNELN

For the substance “Methyl 7-[4-(hydroxynonyl)phenyl]-5-hydroxy-6heptynoate [Example 11]”, the pIC50 was 6.00 in assay [1] and 6.19 in assay [2].

For the substance “7-[2-[5-(1-hydroxynonyl)thienyl]-5-hydroxy-6Z-heptynoic acid, lithium salt [Example 22]”, the pIC50 is 5.30 in assay [1] and 5.74 in assay [2].

Take “7-[2-[5-(1-hydroxynonyl)thienyl]-5-hydroxy-6Z-heptenoic acid, lithium salt [Example 23]”: the “Inhibition of Receptor Binding of LTB4, % inhibition” value in assay [1] (at 10 μM) was found to be 20%. Also, the pIC50 in assay [2] is 5.06.
